{
  "source": "paper PMC3852661",
  "about": "“Structural basis of SUFU–GLI interaction in human Hedgehog signalling regulation” (Acta Crystallographica Section D: Biological Crystallography, 2013)",
  "key": {"MBP-SUFU-Δ": {"target": "T1, MBP-SUFU-Δ (Homo sapiens, UniProt Q9UMX1, DEL285-359/L360P/P281R/P282G/R280S/S279P)", "T1 construct": "subcloning different SUFU32–483 variants into vector pLJMBP4c; His tag (as in MBP-SUFU-FL; purified on HisTrap) (C); made in house; host or cells: Escherichia coli JM109 (DE3)", "T1 sequence (Q9UMX1 with tags, fused parts or gaps S279P/R280S/P281R/P282G/DEL285-359/L360P limits assumed, other chains not shown)": "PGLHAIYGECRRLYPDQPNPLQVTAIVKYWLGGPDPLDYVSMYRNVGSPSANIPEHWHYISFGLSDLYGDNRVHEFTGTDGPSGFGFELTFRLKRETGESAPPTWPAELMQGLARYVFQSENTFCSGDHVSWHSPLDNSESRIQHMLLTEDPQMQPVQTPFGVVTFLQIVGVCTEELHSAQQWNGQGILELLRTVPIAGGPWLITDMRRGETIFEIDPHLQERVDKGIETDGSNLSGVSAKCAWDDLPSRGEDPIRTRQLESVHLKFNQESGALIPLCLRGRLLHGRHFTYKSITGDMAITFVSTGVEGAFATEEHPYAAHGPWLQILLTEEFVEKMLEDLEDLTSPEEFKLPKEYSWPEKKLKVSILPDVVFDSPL", "assay": "Microscale thermophoresis with FAM-GLI1p, MBP-SUFU-Δ", "details": "binding to MBP-SUFU-Δ; 50 nM FAM-GLI1p", "protocol": "(§1) A 5-FAM-labelled peptide (FAM-GLI1p) comprising residues 115–131 of GLI1 (Supplementary Table S1b) was synthesized by Pepceuticals Ltd. A titration series of each recombinant protein was prepared by serial 1:1 dilutions in MST buffer (50 mM Tris–HCl pH 7.6, 150 mM NaCl, 10 mM MgCl2, 0.05% Tween-20) and mixed in a 1:1 ratio with FAM-GLI1p to give final concentrations of 50 nM FAM-GLI1p with MBP-SUFU constructs in the ranges 14.2–29 070 and 54–110 500 nM. Reactions were aspirated into glass capillaries and the thermophoretic movement of FAM-GLI1p was monitored using a Monolith NT.115 instrument (NanoTemper Technologies; Wienken et al., 2010[▶]), with a laser on for 30 s and off for 5 s and a laser power/voltage of 20% for MBP-SUFU-FL and the MBP-SUFU-FL mutants, 40% for MBP-SUFU-Δ and 80% for MBP-SUFU-SH. Fluorescence was measured before laser heating (F Cold) and after 30 s of laser-on time (F Hot). The normalized fluorescence F Hot/F Cold reflects the concentration ratio of labelled molecules. F Hot/F Cold was plotted directly and multiplied by a factor of […], yielding a relative change in fluorescence per thousand. K d was calculated from three independent thermophoresis measurements using NanoTemper software (NanoTemper Technologies)."}, "MBP-SUFU-FL [1]": {"target": "T2, MBP-SUFU-FL (Homo sapiens, UniProt Q9UMX1)", "T2 construct": "containing residues 32–483 of human SUFU and a C-terminal hexahistidine tag; hexahistidine tag (C); made in house; host or cells: Escherichia coli JM109 (DE3)", "T2 sequence (Q9UMX1 32-483, other chains not shown)": "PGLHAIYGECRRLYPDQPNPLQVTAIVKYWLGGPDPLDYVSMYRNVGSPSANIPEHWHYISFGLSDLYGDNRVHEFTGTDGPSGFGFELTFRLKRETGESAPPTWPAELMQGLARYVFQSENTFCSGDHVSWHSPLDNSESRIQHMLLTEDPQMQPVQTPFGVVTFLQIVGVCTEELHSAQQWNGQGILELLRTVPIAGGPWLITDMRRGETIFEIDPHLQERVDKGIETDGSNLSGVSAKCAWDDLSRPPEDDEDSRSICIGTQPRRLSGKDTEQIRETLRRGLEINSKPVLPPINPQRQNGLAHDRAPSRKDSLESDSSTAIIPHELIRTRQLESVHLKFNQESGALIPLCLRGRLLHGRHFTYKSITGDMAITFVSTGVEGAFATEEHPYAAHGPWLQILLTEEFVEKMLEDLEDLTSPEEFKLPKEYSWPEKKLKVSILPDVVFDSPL", "assay": "Microscale thermophoresis with FAM-GLI1p, MBP-SUFU-FL", "details": "binding to MBP-SUFU-FL; 50 nM FAM-GLI1p", "protocol": "as §1"}, "MBP-SUFU-SH": {"test_system": "MBP-SUFU-SH", "assay": "Microscale thermophoresis with FAM-GLI1p, MBP-SUFU-SH", "parameters": "species or system human", "details": "binding to MBP-SUFU-SH; 50 nM FAM-GLI1p", "protocol": "as §1"}, "[2]": {"test_system": "Hh pathway, Sufu −/− MEFs with SUFU-FL", "assay": "Hh pathway reactivation in Sufu −/− MEFs expressing SUFU-FL", "assay_type": "cell-based, mouse", "details": "48–72 h, luciferase", "protocol": "(§2) Sufu ^−/− mouse embryonic fibroblast (MEF) cells (Svärd et al., 2006[▶]) were transfected with a mixture of p8x3′Gli-BS LucII or p8x3′Gli-mBS LucII reporter constructs (Sasaki et al., 1997[▶]; generous gifts from Hiroshi Sasaki) together with pRL-SV40 (Promega) internal control using Lipofectamine LTX with Plus reagent (Invitrogen) according to the manufacturer’s instructions. Following transfection, Sufu ^−/− MEF cells were grown until the culture reached confluency (24–48 h) and the cells were then switched to low-serum medium (0.5% FBS) with 100–200 nM SAG (kindly provided by Jan Bergman, Karolinska Institutet), 10 µM purmorphamine (Calbiochem) or Shh conditioned medium (1:4) and grown for an additional 48–72 h. Cell lysis and luciferase activity measurements were performed using a Dual Luciferase Activity Assay Kit (Promega). For statistical evaluation of reporter gene assays, a one-tailed paired Student’s t-test was used. All activity measurements were performed at least three times in independent experiments."}, "[3]": {"test_system": "Hh pathway, Sufu −/− MEFs with SUFU-Δ", "assay": "Hh pathway reactivation in Sufu −/− MEFs expressing SUFU-Δ", "assay_type": "cell-based, mouse", "details": "48–72 h, luciferase", "protocol": "as §2"}, "[4]": {"test_system": "Hh pathway, Sufu −/− MEFs with SUFU-SH", "assay": "Hh pathway reactivation in Sufu −/− MEFs expressing SUFU-SH", "assay_type": "cell-based, mouse", "details": "48–72 h, luciferase", "protocol": "as §2"}, "[5]": {"test_system": "Hh pathway, Sufu −/− MEFs with SUFU-IDRfly", "assay": "Hh pathway reactivation in Sufu −/− MEFs expressing SUFU-IDRfly", "assay_type": "cell-based, mouse", "details": "SAG 100–200 nM, 48–72 h, luciferase", "protocol": "as §2"}, "MBP-SUFU-FL [6]": {"target": "T2, MBP-SUFU-FL", "assay": "HDX protection of MBP-SUFU-FL by GLI peptides", "assay_type": "binding", "protocol": "To compare amide HDX kinetics between MBP-SUFU-FL and MBP-SUFU-Δ, 4 µl of each protein (both at 11 mg ml^−1 in 50 mM Na HEPES pH 7.0, 50 mM NaCl, 5 mM β-mercaptoethanol, 1.5 mM maltose) was mixed with 13 µl deuterated buffer with the same ionic composition as the protein sample. For MBP-SUFU-FL–Gli3p interaction experiments, 45 µl MBP-SUFU-FL (11 mg ml^−1) was mixed with 5 µl Gli3p (6 mM; a 5.5-fold excess) and incubated for 1 h. In the latter case, exchange was initiated by mixing 4 µl MBP-SUFU-FL–Gli3p with 13 µl deuterated buffer with the same ionic composition as the sample. Each reaction was stopped by adding 9 µl quenching solution (4 M urea, 50 mM TCEP, 1% TFA) and flash-freezing in liquid N2. Deuteration reactions were incubated for 60, 300, 600 and 1800 s for the MBP-SUFU-FL and MBP-SUFU-Δ experiments and 300, 600 and 1800 s for the MBP-SUFU-FL–Gli3p interaction experiments (at 4°C, in triplicate). A 24 h incubation was used as a fully deuterated sample for back-exchange correction.\nSamples were analyzed in a semi-automated HDX-MS system (Biomotif AB, Sweden) in which manually injected samples were automatically digested, cleaned and separated at 1.0°C. […]"}, "[7]": {"details": "purmorphamine 10 µM, p ≤ 0.05, n = 5"}},
  "note": "Where a SMILES comes first, the peptide text is derived from it. The star is where a group is joined. 5FAM = O=C1OC2(c3ccc(O)cc3Oc3cc(O)ccc32)c2ccc(C(=O)*)cc21",
  "data": [
    {"compound": "CC[C@H](C)[C@H](NC(=O)[C@H](CO)NC(=O)[C@H](CC(C)C)NC(=O)[C@H](Cc1c[nH]cn1)NC(=O)CNC(=O)[C@H](Cc1ccc(O)cc1)NC(=O)[C@H](CO)NC(=O)CNC(=O)CNC(=O)[C@@H]1CCCN1C(=O)[C@H](CO)NC(=O)[C@@H](NC(=O)c1ccc2c(c1)C(=O)OC21c2ccc(O)cc2Oc2cc(O)ccc21)[C@@H](C)O)C(=O)NCC(=O)N[C@H](C(=O)N[C@@H](CCSC)C(=O)N[C@@H](CO)C(=O)N1CCC[C@H]1C(=O)O)[C@@H](C)O", "note": "[FAM-GLI1p] (5FAM-TSPGGSYGHLSIGTMSP-OH; C-terminus assumed)", "values": [
      {"measurement": "thermophoretic movement of the peptide on binding", "setting": "MBP-SUFU-Δ", "value": "decreased it"},
      {"measurement": "thermophoretic movement of the peptide on binding", "setting": "MBP-SUFU-FL [1]", "value": "increased the rate of movement in the thermophoretic gradient"},
      {"measurement": "thermophoretic movement of the peptide on binding", "setting": "MBP-SUFU-SH", "value": "decreased it"}
    ]},
    {"compound": "c1ccc2c(Oc3nc(Nc4ccc(N5CCOCC5)cc4)c4ncn(C5CCCCC5)c4n3)cccc2c1", "note": "[Purmorphamine]", "values": [
      {"measurement": "pathway reactivation", "setting": "[2]; [7]", "value": "the same disparate effects on SUFU-FL and SUFU-Δ repressive function"},
      {"measurement": "pathway reactivation", "setting": "[3]; [7]", "value": "the same disparate effects on SUFU-FL and SUFU-Δ repressive function"},
      {"measurement": "pathway reactivation", "setting": "[3]; purmorphamine 10 µM, p ≤ 0.05, n = 5, listed as purmorphamine", "value": "Lack of Hh pathway reactivation"},
      {"measurement": "pathway reactivation", "setting": "[4]; purmorphamine 10 µM", "value": "Lack of Hh pathway reactivation"}
    ]},
    {"compound": "CNC1CCC(N(Cc2cccc(-c3ccncc3)c2)C(=O)c2sc3ccccc3c2Cl)CC1", "note": "(stereo not shown) [SAG]", "values": [
      {"measurement": "pathway reactivation", "setting": "[2]; SAG 100–200 nM", "value": "overrode repression by the full-length protein"},
      {"measurement": "pathway reactivation", "setting": "[3]; SAG 100–200 nM, p ≤ 0.005, n = 10", "value": "failed to reactivate the pathway"},
      {"measurement": "pathway reactivation", "setting": "[5]", "value": "repression could not be relieved"},
      {"measurement": "pathway reactivation", "setting": "[4]; SAG 100–200 nM, p ≤ 0.01, n = 4", "value": "failed to reactivate the pathway"}
    ]},
    {"compound": "GLI3p-SHC: GLI3 peptide that terminates at His336; residues 328–336 (SSASGSYGH)", "values": [
      {"measurement": "protection of MBP-SUFU-FL from deuteration (HDX)", "setting": "MBP-SUFU-FL [6]; GLI3 peptide that terminates at His336, data not shown", "value": "unable to protect MBP-SUFU-FL from deuteration"}
    ]},
    {"compound": "GLI3p: corresponding peptide from human GLI3; residues 328–344 (SSASGSYGHLSASAISP)", "values": [
      {"measurement": "protection of MBP-SUFU-FL from deuteration (HDX)", "setting": "MBP-SUFU-FL [6]; Gli3p 5.5-fold excess, 1 h pre-incubation, 300, 600 and 1800 s exchange at 4°C, in triplicate, LC-MS", "value": "more protected from exchange in the presence of the peptide"}
    ]}
  ]
}
